Reference: the supplement of paper PMC10307832

Key:
Assay in all cases: relative viability (nuclei count vs DMSO), 5 days (fraction); higher = more cells survive
Seliciclib + Lapatinib = compound: CC[C@H](CO)Nc1nc(NCc2ccccc2)c2ncn(C(C)C)c2n1 [Seliciclib] + CS(=O)(=O)CCNCc1ccc(-c2ccc3ncnc(Nc4ccc(OCc5cccc(F)c5)c(Cl)c4)c3c2)o1 [Lapatinib] (partner 2 µM)
Method in brief: (§1)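 Relative viability divides the nuclei count in treated wells by that in vehicle wells. Lung cancer cell lines were seeded in 1536-well plates, dosed by pin tool the next day, and fixed and stained after 5 days in one step with final 0.05% Triton X-100, 1% formaldehyde and 1 ug/ml Hoechst. Dosing was a single drug or a fixed anchor-drug dose plus five library-drug doses (not always all listed) in √10 steps, and values are medians of duplicate plates imaged at 4×.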

Seliciclib + Linsitinib = compound: CC[C@H](CO)Nc1nc(NCc2ccccc2)c2ncn(C(C)C)c2n1 [Seliciclib] + C[C@]1(O)C[C@@H](c2nc(-c3ccc4ccc(-c5ccccc5)nc4c3)c3c(N)nccn32)C1 [Linsitinib] (partner 1 µM)
Method in brief: as §1

Seliciclib + OSI-027 = compound: CC[C@H](CO)Nc1nc(NCc2ccccc2)c2ncn(C(C)C)c2n1 [Seliciclib] + COc1cccc2cc(-c3nc([C@H]4CC[C@H](C(=O)O)CC4)n4ncnc(N)c34)[nH]c12 [OSI-027] (partner 0.5 µM)
Method in brief: as §1

Seliciclib + Trametinib = compound: CC[C@H](CO)Nc1nc(NCc2ccccc2)c2ncn(C(C)C)c2n1 [Seliciclib] + CC(=O)Nc1cccc(-n2c(=O)n(C3CC3)c(=O)c3c(Nc4ccc(I)cc4F)n(C)c(=O)c(C)c32)c1 [Trametinib] (partner 0.02 µM)
Method in brief: as §1

Cell Line | relative viability (Seliciclib + Lapatinib; first compound 0.08 µM) | relative viability (Seliciclib + Lapatinib; first compound 0.253 µM) | relative viability (Seliciclib + Lapatinib; first compound 0.8 µM) | relative viability (Seliciclib + Lapatinib; first compound 2.53 µM) | relative viability (Seliciclib + Lapatinib; first compound 8 µM) | relative viability (Seliciclib + Linsitinib; first compound 0.08 µM) | relative viability (Seliciclib + Linsitinib; first compound 0.253 µM) | relative viability (Seliciclib + Linsitinib; first compound 0.8 µM) | relative viability (Seliciclib + Linsitinib; first compound 2.53 µM) | relative viability (Seliciclib + Linsitinib; first compound 8 µM) | relative viability (Seliciclib + OSI-027; first compound 0.08 µM) | relative viability (Seliciclib + OSI-027; first compound 0.253 µM) | relative viability (Seliciclib + OSI-027; first compound 0.8 µM) | relative viability (Seliciclib + OSI-027; first compound 2.53 µM) | relative viability (Seliciclib + OSI-027; first compound 8 µM) | relative viability (Seliciclib + Trametinib; first compound 0.08 µM) | relative viability (Seliciclib + Trametinib; first compound 0.253 µM) | relative viability (Seliciclib + Trametinib; first compound 0.8 µM) | relative viability (Seliciclib + Trametinib; first compound 2.53 µM) | relative viability (Seliciclib + Trametinib; first compound 8 µM)
HCC-78 | 0.931 | 1.39 | 0.881 | 0.559 | 0.479 | 0.478 | 0.558 | 0.49 | 0.596 | 0.404 | 0.411 | 0.426 | 0.358 | 0.34 | 0.326 | 0.737 | 0.94 | 0.746 | 0.83 | 0.513
HCC-366 | 1.01 | 1.15 | 0.987 | 1.22 | 0.863 | 0.538 | 0.448 | 0.557 | 0.836 | 0.36 | 0.978 | 0.43 | 0.825 | 0.513 | 0.625 | 0.332 | 0.253 | 0.368 | 0.317 | 0.239
HCC-827 | 0.208 | 0.246 | 0.203 | 0.225 | 0.188 | 0.927 | 1 | 0.892 | 0.919 | 0.845 | 0.844 | 0.612 | 0.757 | 0.801 | 0.794 | 0.494 | 0.519 | 0.525 | 0.533 | 0.365
HOP-62 | 0.937 | 0.931 | 1.04 | 1.06 | 0.864 | 1.04 | 0.935 | 0.891 | 0.834 | 0.879 | 0.891 | 0.705 | 0.952 | 0.57 | 0.777 | 0.377 | 0.302 | 0.377 | 0.418 | 0.431
IA-LM | 0.537 | 1.07 | 0.719 | 0.977 | 0.82 | 0.644 | 0.793 | 0.602 | 0.709 | 0.611 |  |  |  |  |  |  |  |  |  | 
LC-2-ad | 0.948 | 1.15 | 0.895 | 0.829 | 0.857 | 0.884 | 0.94 | 0.756 | 0.827 | 0.607 | 0.902 | 0.901 | 0.827 | 0.453 | 0.799 | 0.9 | 0.976 | 0.867 | 0.907 | 0.79
LCLC-97TM1 | 1.12 | 1.71 | 1.36 |  | 0.364 | 0.162 | 0.181 | 0.205 |  | 0.18 | 0.442 | 0.424 | 0.714 | 0.108 | 0.182 | 0.244 | 0.173 | 0.226 | 0.178 | 0.155
LCLC-103H |  |  |  |  |  | 1.17 | 0.973 | 1.02 | 1.02 | 0.849 | 0.452 | 0.47 | 0.456 | 0.319 | 0.487 | 0.666 | 0.711 | 0.647 | 0.681 | 0.682
LK-2 | 0.946 | 0.91 | 0.871 | 0.747 | 0.452 | 0.74 | 0.462 | 0.523 | 0.676 | 0.274 | 0.225 | 0.203 | 0.191 | 0.175 | 0.194 | 0.747 | 0.575 | 0.69 | 0.693 | 0.577
LOU-NH91 | 0.743 | 0.682 | 0.729 | 0.6 | 0.681 | 0.878 | 0.889 | 0.881 | 1.01 | 0.693 | 0.741 | 0.693 | 0.674 | 0.592 | 0.644 |  | 0.702 | 0.786 | 0.745 | 0.752
LU99A | 1.01 | 0.923 | 1.02 | 0.666 | 0.537 | 0.565 | 0.466 | 0.474 | 0.497 | 0.494 | 0.286 | 0.265 | 0.323 | 0.221 | 0.323 | 0.586 | 0.484 | 0.5 | 0.485 | 0.393
NCI-H441 |  |  |  |  |  | 0.699 | 0.545 | 0.45 | 0.572 | 0.442 | 0.794 | 0.582 | 0.645 | 0.335 | 0.423 | 0.563 | 0.552 | 0.557 | 0.241 | 0.454
NCI-H522 |  |  |  |  |  |  |  |  |  |  | 0.818 | 0.63 | 0.685 | 0.623 | 0.644 | 0.735 | 0.672 | 0.778 | 0.673 | 0.713
NCI-H1299 | 0.953 | 1.06 | 0.997 | 0.962 | 0.948 | 0.981 | 1.14 | 1.09 | 0.956 | 1 |  |  |  |  |  |  |  |  |  | 
NCI-H1563 | 1.03 | 0.842 | 0.957 | 0.851 | 0.845 | 1.15 | 0.925 | 1.11 | 1.21 | 1.12 | 0.766 | 0.709 | 0.725 | 0.747 | 0.792 |  |  |  |  | 
NCI-H1648 |  |  |  |  |  |  |  |  |  |  | 0.273 | 0.313 | 0.281 | 0.251 | 0.259 | 0.5 | 0.501 | 0.478 | 0.406 | 0.394
NCI-H1650 | 0.769 | 0.889 | 0.725 | 0.621 | 0.347 |  |  |  |  |  | 0.842 | 0.518 | 0.641 | 0.487 | 0.443 | 0.572 | 0.69 | 0.471 | 0.433 | 0.422
NCI-H1703 | 1.07 | 0.861 | 1.03 | 1.14 | 0.846 | 0.675 | 0.869 | 0.767 | 0.989 | 0.712 |  |  |  |  |  |  |  |  |  | 
NCI-H2170 | 0.272 | 0.274 | 0.269 | 0.259 | 0.268 |  |  |  |  |  | 0.754 | 0.639 | 0.724 | 0.691 | 0.708 | 0.85 |  | 0.884 | 0.927 | 0.888
NCI-H2342 |  |  |  |  |  |  |  |  |  |  | 0.565 | 0.657 | 0.581 | 0.505 | 0.574 | 0.705 | 0.598 | 0.865 | 0.752 | 0.887
SW 900 |  |  |  |  |  |  |  |  |  |  | 0.59 | 0.396 | 0.62 | 0.45 | 0.397 | 0.632 | 0.833 | 0.734 | 0.514 | 0.524
